Experimental data: patent US20190321345A1, “GLUT4 Selective Inhibitors for Cancer Therapy” (Emory University, priority 2016, published 2019)

How the values were obtained:
KMS11-GLUT1 cells = assay: Proliferation of KMS11-GLUT1 myeloma cells (Cell Titre Glo); type: cell-based; conditions: inhibition of proliferation, 72 hours
Procedure: (§1) IC50 studies were performed using the CellTiter-Glo assay (Promega, Madison, Wis.). 20,000 cells in 100 ul complete RPMI 1640 medium were plated per well in 96-well plates, with a concentration range of individual compounds. After 72 h incubation, 100 uL Glo reagent were added to each well and luminescence was measured using a Biotek Synergy 4 multimode plate reader. Cell number was assessed by trypan blue standing and an automatic cell counter (Biorad). For cell viability assays 0.125×10^6 cells/mL were treated with the indicated concentration of drug, washed with 1×PBS and evaluated for viability by AnnexinV/DAPI staining and flow cytometry. Data analysis was per-formed with the FCS express version 3 (De Novo software, Los Angeles).
(§2) Compound were selected as a lead based on its low IC50, selectivity for inhibition of glucose transport through GLUT4, and inhibition of the KMS11-GFP cell line proliferation in contrast to the GLUT1 expressing isogenic line. Compounds were assessed in a high-throughput proliferation-based assay using an isogenic MM (KMS11) cell line pair overexpressing GLUT1 or GFP (as a control) (model of screen is depicted in FIG. 2A). […] Isogenic KMS11-GFP/GLUT1 overexpressing myeloma cell lines were treated with a dose range of the indicated test compound for 72 hours followed by evaluation of viable cell number by Cell Titre Glo assay

KMS11-GFP cells = assay: Proliferation of KMS11-GFP myeloma cells (Cell Titre Glo); type: cell-based; conditions: for EC50: inhibition of proliferation, 72 hours, Cell Titre Glo; for impact on proliferation in KMS11-GFP cells compared with KMS11-GLUT1 cells: isogenic cell line pair
Procedure: as §1, §2

COc1ccc(C(=O)N(Cc2ccncc2)Cc2cccc(OCc3ccc(F)cc3)c2)cc1 [Compound 16, N-(3-((4-fluorobenzyl)oxy)benzyl)-4-methoxy-N-(pyridin-4-ylmethyl)benzamide]
EC50 (KMS11-GLUT1 cells): 28.6 µM
EC50 (KMS11-GFP cells): 22.7 µM

O=C(c1ccc(Cl)cc1)N(Cc1ccncc1)Cc1cccc(OCCc2ccc(F)cc2)c1 [Compound 19, 4-Chloro-N-(3-(4-fluorophenethoxy)benzyl)-N-(pyridin-4-ylmethyl)benzamide]
EC50 (KMS11-GLUT1 cells): 15.6 µM
EC50 (KMS11-GFP cells): 13.1 µM

COc1ccc(C(=O)N(Cc2ccncc2)Cc2cccc(OCC(=O)c3cccc(Br)c3)c2)cc1 [Compound 21, N-(3-(2-(3-bromophenyl)-2-oxoethoxy)benzyl)-4-methoxy-N-(pyridin-4-ylmethyl)benzamide]
EC50 (KMS11-GLUT1 cells): 21.4 µM
EC50 (KMS11-GFP cells): 18.7 µM

COc1ccc(C(=O)N(Cc2ccncc2)Cc2cccc(OCCc3ccccc3)c2)cc1 [Compound 10, 4-Methoxy-N-(3-phenethoxybenzyl)-N-(pyridin-4-ylmethyl)benzamide]
EC50 (KMS11-GLUT1 cells): 21 µM
EC50 (KMS11-GFP cells): 16.9 µM

COc1ccc(C(=O)N(Cc2ccncc2)Cc2cccc(OCCc3cccc(C(F)(F)F)c3)c2)cc1 [Compound 8, 4-Methoxy-N-(pyridin-4-ylmethyl)-N-(3-(3-(trifluoromethyl)phenethoxy)benzyl)benzamide]
EC50 (KMS11-GLUT1 cells): 15.1 µM
EC50 (KMS11-GFP cells): 8.9 µM
impact on proliferation in KMS11-GFP cells compared with KMS11-GLUT1 cells (KMS11-GFP cells): greater impact on proliferation in KMS11-GFP cells

COc1ccc(C(=O)N(Cc2ccncc2)Cc2cccc(OCc3ccc([N+](=O)[O-])cc3)c2)cc1 [Compound 14, 4-Methoxy-N-(3-((4-nitrobenzyl)oxy)benzyl)-N-(pyridin-4-ylmethyl)benzamide]
EC50 (KMS11-GLUT1 cells): 11.7 µM
EC50 (KMS11-GFP cells): 15.4 µM

COc1ccc(C(=O)N(Cc2ccncc2)Cc2cccc(OCCc3ccc(C)cc3)c2)cc1 [Compound 7, 4-Methoxy-N-(3-(4-methylphenethoxy)benzyl)-N-(pyridin-4-ylmethyl)benzamide]
EC50 (KMS11-GLUT1 cells): 12.7 µM
EC50 (KMS11-GFP cells): 9.1 µM

COc1ccc(C(=O)N(Cc2ccncc2)Cc2cccc(OCC3CCCCC3)c2)cc1 [Compound 12, N-(3-(cyclohexylmethoxy)benzyl)-4-methoxy-N-(pyridin-4-ylmethyl)benzamide]
EC50 (KMS11-GLUT1 cells): 16 µM
EC50 (KMS11-GFP cells): 19.7 µM

COc1ccc(C(=O)N(Cc2ccncc2)Cc2cccc(OCc3cccc([N+](=O)[O-])c3)c2)cc1 [Compound 22, 4-Methoxy-N-(3-((3-nitrobenzyl)oxy)benzyl)-N-(pyridin-4-ylmethyl)benzamide]
EC50 (KMS11-GLUT1 cells): 20.6 µM
EC50 (KMS11-GFP cells): 19.6 µM

COc1ccc(C(=O)N(Cc2ccncc2)Cc2cccc(OCC(=O)c3ccc(Cl)cc3)c2)cc1 [Compound 18, N-(3-(2-(4-chlorophenyl)-2-oxoethoxy)benzyl)-4-methoxy-N-(pyridin-4-ylmethyl)benzamide]
EC50 (KMS11-GLUT1 cells): 16.9 µM
EC50 (KMS11-GFP cells): 18.5 µM

COc1ccc(C(=O)N(Cc2ccncc2)Cc2cccc(OCC3CCOCC3)c2)cc1 [Compound 9, 4-Methoxy-N-(pyridin-4-ylmethyl)-N-(3-((tetrahydro-2H-pyran-4-yl)methoxy)benzyl)benzamide]
EC50 (KMS11-GLUT1 cells): 25.8 µM
EC50 (KMS11-GFP cells): 17.7 µM
impact on proliferation in KMS11-GFP cells compared with KMS11-GLUT1 cells (KMS11-GFP cells): greater impact on proliferation in KMS11-GFP cells

COc1ccc(C(=O)N(Cc2ccncc2)Cc2cccc(OCc3ccc(C(F)(F)F)cc3)c2)cc1 [Compound 15]
EC50 (KMS11-GLUT1 cells): 16.8 µM
EC50 (KMS11-GFP cells): 14.3 µM

COc1ccc(C(=O)N(Cc2ccncc2)Cc2cccc(OCCc3ccc(Br)cc3)c2)cc1 [Compound 13, N-(3-(4-bromophenethoxy)benzyl)-4-methoxy-N-(pyridin-4-ylmethyl)benzamide]
EC50 (KMS11-GLUT1 cells): 6.5 µM
EC50 (KMS11-GFP cells): 8.4 µM

COc1ccc(C(=O)N(Cc2ccncc2)Cc2cccc(OCC3CCN(C(=O)OC(C)(C)C)CC3)c2)cc1 [Compound 11, Tert-butyl 4-((3-((4-methoxy-N-(pyridin-4-ylmethyl)benzamido)methyl)phenoxy)methyl)piperidine-1-carboxylate]
EC50 (KMS11-GLUT1 cells): 4.9 µM
EC50 (KMS11-GFP cells): 5.1 µM
